Assay results from PubChem BioAssay (NCI).
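Cultured in 96-well plates, cells were exposed to test compound for 48 hours across five concentrations. The concentration for 50% growth inhibition is given as GI50. TGI is the concentration that stops growth completely.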

Assays:
Assay in all cases: inhibition of tumour cell growth, NCI panel, 48 h
HCT-15 colon = test system: HCT-15 colon
RXF 393 renal = test system: RXF 393 renal
SK-MEL-5 melanoma = test system: SK-MEL-5 melanoma
COLO 205 colon = test system: COLO 205 colon
HT29 colon = test system: HT29 colon
HS 578T breast = test system: HS 578T breast
SN12C renal = test system: SN12C renal
EKVX NSCLC = test system: EKVX NSCLC
MDA-MB-468 breast = test system: MDA-MB-468 breast
SK-MEL-2 melanoma = test system: SK-MEL-2 melanoma
OVCAR-3 ovarian = test system: OVCAR-3 ovarian
UACC-257 melanoma = test system: UACC-257 melanoma
NCI/ADR-RES ovarian = test system: NCI/ADR-RES ovarian
SW-620 colon = test system: SW-620 colon
MCF7 breast = test system: MCF7 breast
SNB-19 CNS = test system: SNB-19 CNS
SR leukemia = test system: SR leukemia
MDA-MB-435 = test system: MDA-MB-435
SK-MEL-28 melanoma = test system: SK-MEL-28 melanoma
MDA-MB-231 breast = test system: MDA-MB-231 breast
MALME-3M melanoma = test system: MALME-3M melanoma
T-47D breast = test system: T-47D breast
BT-549 breast = test system: BT-549 breast
LOX IMVI melanoma = test system: LOX IMVI melanoma
786-0 renal = test system: 786-0 renal
NCI-H522 lung = test system: NCI-H522 lung
HCT-116 colon = test system: HCT-116 colon
SK-OV-3 ovarian = test system: SK-OV-3 ovarian
SNB-75 CNS = test system: SNB-75 CNS
HOP-62 NSCLC = test system: HOP-62 NSCLC
MOLT-4 leukemia = test system: MOLT-4 leukemia
KM12 colon = test system: KM12 colon
HOP-92 NSCLC = test system: HOP-92 NSCLC
IGROV1 ovarian = test system: IGROV1 ovarian
A549 NSCLC = test system: A549 NSCLC
M14 melanoma = test system: M14 melanoma
HCC-2998 colon = test system: HCC-2998 colon
NCI-H226 lung = test system: NCI-H226 lung
NCI-H23 lung = test system: NCI-H23 lung
PC-3 prostate = test system: PC-3 prostate
A498 renal = test system: A498 renal
ACHN renal = test system: ACHN renal
HL-60(TB) leukemia = test system: HL-60(TB) leukemia
OVCAR-5 ovarian = test system: OVCAR-5 ovarian
CAKI-1 renal = test system: CAKI-1 renal
OVCAR-4 ovarian = test system: OVCAR-4 ovarian
SF-539 CNS = test system: SF-539 CNS
U251 CNS = test system: U251 CNS
UACC-62 melanoma = test system: UACC-62 melanoma
SF-295 CNS = test system: SF-295 CNS
UO-31 renal = test system: UO-31 renal
OVCAR-8 ovarian = test system: OVCAR-8 ovarian
SF-268 CNS = test system: SF-268 CNS
K-562 leukemia = test system: K-562 leukemia
DU-145 prostate = test system: DU-145 prostate
TK-10 renal = test system: TK-10 renal
NCI-H460 lung = test system: NCI-H460 lung
CCRF-CEM leukemia = test system: CCRF-CEM leukemia
RPMI-8226 leukemia = test system: RPMI-8226 leukemia

## O=C(c1ccc(Cl)cc1)C1[C@H](c2ccccc2Cl)[C@@H](c2ccccc2)NC12C(=O)Nc1ccc(Br)cc12 (stereo partly drawn)
HCT-15 colon
  GI50: 15.8 µM
  TGI: 30.5 µM
RXF 393 renal
  GI50: 14.1 µM
  TGI: 28.2 µM
SK-MEL-5 melanoma
  GI50: 16.1 µM
  TGI: 29.8 µM
COLO 205 colon
  GI50: 17.4 µM
  TGI: 31.6 µM
HT29 colon
  GI50: 17.9 µM
  TGI: 37 µM
HS 578T breast
  GI50: 16.9 µM
  TGI: 42.7 µM
SN12C renal
  GI50: 15 µM
  TGI: 28.2 µM
EKVX NSCLC
  GI50: 16.6 µM
  TGI: 44 µM
MDA-MB-468 breast
  GI50: 11 µM
  TGI: 26.9 µM
SK-MEL-2 melanoma
  GI50: 15.9 µM
  TGI: 31.6 µM
OVCAR-3 ovarian
  GI50: 15.6 µM
  TGI: 32.4 µM
UACC-257 melanoma
  GI50: 17.6 µM
  TGI: 37.8 µM
NCI/ADR-RES ovarian
  GI50: 15.5 µM
  TGI: 30.7 µM
SW-620 colon
  GI50: 16.1 µM
  TGI: 31.4 µM
MCF7 breast
  GI50: 15.7 µM
  TGI: 37.3 µM
SNB-19 CNS
  GI50: 24.8 µM
  TGI: 78.3 µM
SR leukemia
  GI50: 16.5 µM
  TGI: 41.7 µM
MDA-MB-435
  GI50: 15.2 µM
  TGI: 29.6 µM
SK-MEL-28 melanoma
  GI50: 16 µM
  TGI: 29.7 µM
MDA-MB-231 breast
  GI50: 15.6 µM
  TGI: 29.4 µM
MALME-3M melanoma
  GI50: 15.5 µM
  TGI: 29 µM
T-47D breast
  GI50: 15.2 µM
  TGI: 30.3 µM
BT-549 breast
  GI50: 14.5 µM
  TGI: 28 µM
LOX IMVI melanoma
  GI50: 15.2 µM
  TGI: 28.5 µM
786-0 renal
  GI50: 16.6 µM
  TGI: 34.4 µM
NCI-H522 lung
  GI50: 14.1 µM
  TGI: 29.9 µM
HCT-116 colon
  GI50: 14.4 µM
  TGI: 27.6 µM
SK-OV-3 ovarian
  GI50: 24.3 µM
  TGI: 70.2 µM
SNB-75 CNS
  GI50: 10.5 µM
  TGI: 35 µM
HOP-62 NSCLC
  GI50: 15 µM
  TGI: 30 µM
MOLT-4 leukemia
  GI50: 21.2 µM
  TGI: 61.7 µM
KM12 colon
  GI50: 19.7 µM
  TGI: 44.7 µM
HOP-92 NSCLC
  GI50: 15.6 µM
  TGI: 31 µM
IGROV1 ovarian
  GI50: 17.1 µM
  TGI: 41 µM
A549 NSCLC
  GI50: 17.5 µM
  TGI: 42.3 µM
M14 melanoma
  GI50: 15.3 µM
  TGI: 29.3 µM
HCC-2998 colon
  GI50: 15.5 µM
  TGI: 31.1 µM
NCI-H226 lung
  GI50: 14.4 µM
  TGI: 29.3 µM
NCI-H23 lung
  GI50: 14.9 µM
  TGI: 31.1 µM
PC-3 prostate
  GI50: 15.7 µM
  TGI: 37.5 µM
A498 renal
  GI50: 19.9 µM
  TGI: 46.7 µM
ACHN renal
  GI50: 22.8 µM
  TGI: 69.5 µM
HL-60(TB) leukemia
  GI50: 20.8 µM
  TGI: 49.1 µM
OVCAR-5 ovarian
  GI50: 14.9 µM
  TGI: 29.6 µM
CAKI-1 renal
  GI50: 14.8 µM
  TGI: 33.9 µM
OVCAR-4 ovarian
  GI50: 18.3 µM
  TGI: 49.7 µM
SF-539 CNS
  GI50: 16.5 µM
  TGI: 31.8 µM
U251 CNS
  GI50: 16.1 µM
  TGI: 29.9 µM
UACC-62 melanoma
  GI50: 13.7 µM
  TGI: 27 µM
SF-295 CNS
  GI50: 16.5 µM
  TGI: 32.4 µM
UO-31 renal
  GI50: 13.4 µM
  TGI: 30.6 µM
OVCAR-8 ovarian
  GI50: 17.7 µM
  TGI: 36.6 µM
SF-268 CNS
  GI50: 16.6 µM
  TGI: 38.7 µM
K-562 leukemia
  GI50: 26.8 µM
  TGI: 88.9 µM
DU-145 prostate
  GI50: 19.2 µM
  TGI: 40.5 µM
TK-10 renal
  GI50: 18.3 µM
  TGI: 50.6 µM
NCI-H460 lung
  GI50: 17.7 µM
  TGI: 35 µM
CCRF-CEM leukemia
  GI50: 24.4 µM
  TGI: 68.2 µM
RPMI-8226 leukemia
  GI50: 26 µM
  TGI: 84.5 µM
